The values below come from paper PMC4792926, “G9a-mediated methylation of ERα links the PHF20/MOF histone acetyltransferase complex to hormonal gene expression” (Nature Communications, 2016).

For assay [1], the system named is G9a. The assay can be described thus: In vitro methylation of ERα peptides by G9a, mass spectrometry. The format is biochemical, human. The note with it: 1 μg peptide, pH 8.0, 30 °C, 4 h.
Assay [2] has as its system G9a. The assay can be described thus: In vitro methylation of ERα protein fragments by G9a. Format: biochemical, human. The note with it: 2 μg G9a, 2 μg substrate, 3H-S-adenosylmethionine, pH 8.0, 30 °C, 4 h; autoradiography. The text has this:
Complementary DNA encoding full-length human ERα, G9a, PHF20 and NCOA2 genes were cloned into pENTR3C and subsequently cloned into destination vectors using the Gateway technique (Invitrogen). The destination vectors used in this study include p3Flag and pCAG-Flag (for Flag-tag expression), pCAG-Myc (for Myc-tag expression) and pCAG (for no-tag expression). pERE-Luc Firefly luciferase and pRl-TK Renilla luciferase were used for the reporter assays. For in vitro enzymatic assays, G9a, ERα, ERα fragments and mutants were cloned into pGEX-6P1 (GE Healthcare) to express and purify the proteins as GST-tagged proteins. Point mutations were generated using site-directed mutagenesis (Stratagene). shRNA constructs were purchased from Sigma. The G9a-targeting shRNA sequences used in this study were 5′-[…]-3′, 5′-[…]-3′ and 5′-[…]-3′ and the PHF20-targeting shRNA sequences were 5′-[…]-3′ and 5′-[…]-3′. Peptides were synthesized at the W.M. Keck Facility at Yale University or at CPC-Scientific. Polyclonal anti-dimethylated ERαK235 rabbit sera (CPC Scientific, 1:500) were affinity-purified with an ERαK235me2 peptide and depleted against the corresponding unmethylated peptide. Anti-G9a antibodies were purchased from MBL (D141-3, 1:1,000) and Sigma (G6919, 1:2,000); anti-PHF20 (3934S, 1:1,000) antibody from Cell Signaling; anti-ERα (Sc-503, 1:1,000) and anti-GST (Sc-459, 1:1,000) antibodies from Santa Cruz; anti-FLAG (F-1804, 1:5,000) and anti-tubulin (T8328, 1:5,000) antibodies from Sigma; anti-H4K16ac (07–329, 1:1,000) antibody from Millipore; anti-total H3 (ab1791, 1:5,000) and anti-H3K9me2 (ab1220, 1:1,000) antibodies from Abcam; and streptavidin horseradish peroxidase from Thermo Scientific. 17β-estradiol and the G9a inhibitor BIX-01294 were purchased from Sigma.
The pGEX constructs encoding human G9a, ERα and ERα fragments including AF1 (aa 1–190), DBD (aa 175–250), hinge (aa 251–310), DBD+hinge (aa 175–310), LBD (aa 305–596) and the second Tudor domain of PHF20 (aa 58–148) were expressed in E. coli Rosetta (DE3) pLysS cells. After induction with IPTG (0.5 mM) for 16–18 h at 18 °C, cells were collected by centrifugation at 5,000g, lysed by sonication and purified using Glutathione Sepharose 4B beads (GE Healthcare). […]
Recombinant G9a (2 μg) was incubated with recombinant ERα fragments proteins (2 μg) in methylation assay buffer (50 mM Tris-HCl, pH 8.0, 10% glycerol, 20 mM KCl, 5 mM MgCl2, 1 mM DTT, 1 mM PMSF and 0.1 mM unlabelled or ^3H-labelled S-adenosylmethionine (GE Healthcare)) at 30 °C for 4 h. Reactions were stopped by adding SDS–PAGE sample buffer, and the methylation status was determined by autoradiography or western blotting analysis. […]

A further assay concerns PHF20 Tudor. The assay can be described thus: 1H,15N HSQC NMR titration of PHF20 Tudor. Format: binding, human. As to conditions: 0.2 mM 15N-labelled PHF20 Tudor, 25 mM Tris-HCl pH 7.5, 150 mM NaCl, 298 K, 600 MHz. As to the method: The pGEX constructs encoding human G9a, ERα and ERα fragments including AF1 (aa 1–190), DBD (aa 175–250), hinge (aa 251–310), DBD+hinge (aa 175–310), LBD (aa 305–596) and the second Tudor domain of PHF20 (aa 58–148) were expressed in E. coli Rosetta (DE3) pLysS cells. After induction with IPTG (0.5 mM) for 16–18 h at 18 °C, cells were collected by centrifugation at 5,000g, lysed by sonication and purified using Glutathione Sepharose 4B beads (GE Healthcare). For the NMR titration assays, PHF20 Tudor was expressed in the ^15NH4Cl-supplemented (Sigma) minimal media, and the GST tag was cleaved with PreScission protease, and the cleaved protein was concentrated using Millipore concentrators (Millipore).
The ^1H,^15N HSQC spectra of 0.2 mM uniformly ^15N-labelled PHF20 Tudor (in 25 mM Tris-HCl, pH 7.5 buffer, 150 mM NaCl, 5 mM dithiothreitol and ∼8% D2O) were collected at 298 K on a Varian INOVA 600 MHz spectrometer. Binding was monitored by titrating unmodified ERα and ERαK235me2 peptides (aa 228–239) against the PHF20 Tudor domain. NMR data were processed and analysed with NMRPipe and NMRDraw as previously described. NMR assignments for PHF20 Tudor were taken from the Biological Magnetic Resonance Data Bank (BMRB 17673)[31].

With “ERα peptide containing K235: ERα peptide spanning amino acids 227–244, G9a substrate (CTIDKNRRKSCQACRLRK; UniProt P03372 227-244, looked up, fragment)”, the “increase in mass on G9a methylation” value in the assay with G9a [1] is recorded as 28 Da.

Consider “hinge region: recombinant ERα hinge fragment (aa 251–310) (MKGGIRKDRRGGRMLKHKRQRDDGEGRGEVGSAGDMRAANLWPSPLMIKRSKKNSLALSL; UniProt P03372 251-310, looked up, fragment)”, for which the “methylation by G9a” value in the assay with G9a [2] is “methylated both the DBD and the hinge region”.

As for “peptide containing K303: ERα peptide spanning amino acids 294–313, G9a substrate (SPLMIKRSKKNSLALSLTAD; UniProt P03372 294-313, looked up, fragment)”, in the assay with G9a [1], the “increase in mass on G9a methylation” value is 14 Da.

As to “unmethylated ERα (aa 228–239) peptide: unmodified ERα peptide (aa 228–239) (TIDKNRRKSCQA)”, in the assay on PHF20 Tudor, the “chemical shift changes of PHF20 Tudor” value was “no resonance perturbations were observed”.

B1: DBD and hinge fragment: recombinant ERα fragment DBD+hinge (aa 175–310) (protein, UniProt P03372 175-310, looked up, fragment)
chain: AMESAKETRYCAVCNDYASGYHYGVWSCEGCKAFFKRSIQGHNDYMCPATNQCTIDKNRRKSCQACRLRKCYEVGMMKGGIRKDRRGGRMLKHKRQRDDGEGRGEVGSAGDMRAANLWPSPLMIKRSKKNSLALSL
On to B1, for which the “methylation by G9a” value in the assay on G9a [2] is reported as “specifically methylated”.

B2: AF-1: recombinant ERα N-terminal activation function domain (aa 1–190) (protein, UniProt P03372 1-190, looked up, fragment)
chain: MTMTLHTKASGMALLHQIQGNELEPLNRPQLKIPLERPLGEVYLDSSKPAVYNYPEGAAYEFNAAAAANAQVYGQTGLPYGPGSEAAAFGSNGLGGFPPLNSVSPSPLMLLHPPPQLSPFLQPHGQQVPYYLENEPSGYTVREAGPPAFYRPNSDNRRQGGRERLASTNDKGSMAMESAKETRYCAVCND
Take B2: the “methylation by G9a” value with G9a [2] was “not the AF-1 and LBD fragments”.

B3: DBD: recombinant ERα DNA-binding domain (aa 175–250) (protein, UniProt P03372 175-250, looked up, fragment)
chain: AMESAKETRYCAVCNDYASGYHYGVWSCEGCKAFFKRSIQGHNDYMCPATNQCTIDKNRRKSCQACRLRKCYEVGM
Turning to B3, the “methylation by G9a” value in the assay with G9a [2] is “methylated both the DBD and the hinge region”.
